Where two headings read alike, the source gives them in different places.
Molecular target: T1, hMCHR (MCH receptor) (Homo sapiens, UniProt Q99705)
T1 construct: (or internally produced); host or cells: CHO (Chinese hamster ovary) cells, membrane preparation
Test: MCH Assay PCOP Protocol ([125I]-MCH SPA binding to hMCHR-CHO membranes);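 as to Activity (Ki range): A 0.4–50 nM B 51–500 nM C 501–2500 nM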
Description: A reaction mixture of 10 μg hMCHR-CHO overexpressing membranes (from Receptor Biology, Inc., Beltsville, Md., or internally produced) and 100 μg/well WGA-SPA beads (from Amersham Pharmacia Biotech, Inc., Piscataway, N.J.)/100 μl was prepared in MCHR assay buffer (25 mM HEPES, pH 7.4, 10 mM NaCl, 10 mM MgCl2, 5 mM MnCl2, 0.1% BSA). […] The assay plates were shaken for 5 minutes on a plate shaker, then incubated for 2 hours before cpm/well were determined in a Microbeta Trilux counter (from PerkinElmer Wallac, Inc., Gaithersburg, Md.).

[1] = [125I]-MCH SPA binding, hMCHR-CHO membranes, Ki class ranges, read-out: Activity (range of Ki)
[2] = [125I]-MCH binding to hMCHR-CHO membranes, class symbols for ranges of Ki, read-out: Activity (Ki range)
[3] = [125I]-MCH 0.5 nM, hMCHR-CHO membranes, read-out: Activity (ranges of Ki values)

T1 sequence (Q99705 whole entry): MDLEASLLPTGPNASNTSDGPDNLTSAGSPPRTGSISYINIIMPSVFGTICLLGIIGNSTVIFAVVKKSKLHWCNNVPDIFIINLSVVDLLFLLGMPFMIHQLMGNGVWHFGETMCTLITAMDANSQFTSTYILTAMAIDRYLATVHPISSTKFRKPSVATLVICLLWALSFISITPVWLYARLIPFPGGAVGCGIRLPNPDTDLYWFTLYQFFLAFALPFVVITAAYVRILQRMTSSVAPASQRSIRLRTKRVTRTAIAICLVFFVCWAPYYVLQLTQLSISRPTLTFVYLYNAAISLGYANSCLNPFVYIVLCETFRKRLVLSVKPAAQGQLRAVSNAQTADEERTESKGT

| Ki [3] | Compound | also measured |
| --- | --- | --- |
| – | O=C(NCC(CCN1CCCC1)c1ccc(Cl)c(Cl)c1)Nc1cc(C(F)(F)F)cc(C(F)(F)F)c1 (stereo not drawn) [Example 422] | Ki [1]: 51 to 500 nM |
| – | O=S(=O)(NCC(CCN1CCC(N2CCCCC2)CC1)c1ccc(Cl)c(Cl)c1)c1cccc(C(F)(F)F)c1 (stereo not drawn) [Example 376] | Ki [2]: 501 to 2500 nM |
| – | CC(Cc1c[nH]c2ccccc12)NCCC(CNC(=O)Nc1cc(C(F)(F)F)cc(C(F)(F)F)c1)c1ccc(Cl)c(Cl)c1 (stereo not drawn) [Example 438] | Ki [1]: 501 to 2500 nM |
| – | CN(C)CCCNCCC(CNC(=O)Nc1cc(Cl)cc(Cl)c1)c1ccc(-c2ccc(F)c(Cl)c2)cc1 (stereo not drawn) [Example 224] | Ki [2]: 0.4 to 50 nM |
| 51 to 500 nM | O=C(NCC(CCNC1CCCC1)c1cccs1)Nc1ccc(Cl)c([N+](=O)[O-])c1 (stereo not drawn) [Example 110] | – |
| 501 to 2500 nM | Cc1ccc(-c2cccc(C(CCNC3CCCC3)CNC(=O)Nc3cc(Cl)cc(Cl)c3)c2)cc1 (stereo not drawn) [Example 161] | – |
| – | O=C(NCC(CCNCCN1CCOCC1)c1ccc(Cl)c(Cl)c1)Nc1cc(C(F)(F)F)cc(C(F)(F)F)c1 (stereo not drawn) [Example 428] | Ki [1]: 501 to 2500 nM |
| – | O=C(NCC(CCNC1CCCC1)c1ccc(-c2ccc(Cl)c(Cl)c2)cc1)Nc1cc(Cl)cc(Cl)c1 (stereo not drawn) [Example 245] | Ki [2]: 51 to 500 nM |
| – | CC(C)OCCCNCCC(CNC(=O)c1cc(C(F)(F)F)cc(C(F)(F)F)c1)c1ccc(Cl)c(Cl)c1 (stereo not drawn) [Example 409] | Ki [2]: 501 to 2500 nM |
| – | O=C(NCC(CCNCC1CCCO1)c1ccc(Cl)c(Cl)c1)c1cc(C(F)(F)F)cc(C(F)(F)F)c1 (stereo not drawn) [Example 404] | Ki [2]: 501 to 2500 nM |
| 501 to 2500 nM | O=C(NCC(CCNC1CCCC1)c1cccc(-c2ccccc2Cl)c1)Nc1cc(Cl)cc(Cl)c1 (stereo not drawn) [Example 166] | – |
| 51 to 500 nM | CCNC(=O)N1CCC(NCCC(CNC(=O)Nc2cc(Cl)cc(Cl)c2)c2ccc(C)cc2)C1 (stereo not drawn) [Example 180] | – |
| – | Cn1cnc(CCNCCC(CNC(=O)Nc2ccc(Cl)c(Cl)c2)c2ccc(Cl)c(Cl)c2)c1 (stereo not drawn) [Example 284] | Ki [2]: 51 to 500 nM |
| – | CCN(CC)CCC(CNC(=O)Nc1cc(C(F)(F)F)cc(C(F)(F)F)c1)c1ccc(Cl)c(Cl)c1 (stereo not drawn) [Example 433] | Ki [1]: 501 to 2500 nM |
| – | O=C(NCC(CCN1CCNCC1)c1ccc(Cl)c(Cl)c1)Nc1cc(Cl)cc(Cl)c1 (stereo not drawn) [Example 308] | Ki [2]: 501 to 2500 nM |
| 51 to 500 nM | N#Cc1cccc(-c2ccc(C(CCNC3CC3)CNC(=O)c3ccc(F)c(F)c3)cc2)c1 (stereo not drawn) [Example 68] | – |
| 51 to 500 nM | CCOC(=O)N1CCC(NCCC(CNC(=O)Nc2cc(Cl)cc(Cl)c2)c2ccc(Cl)cc2)CC1 (stereo not drawn) [Example 122] | – |

| Ki [3] | Compound | also measured |
| --- | --- | --- |
| – | O=C(NCc1cc(C(F)(F)F)cc(C(F)(F)F)c1)C(CCNCCc1c[nH]c2cc(F)ccc12)c1ccc(Cl)c(Cl)c1 (stereo not drawn) [Example 381] | Ki [2]: 501 to 2500 nM |
| – | O=C(Cc1ccc(Cl)c(Cl)c1)NCC(CCN1CCC(N2CCCCC2)CC1)c1ccc(Cl)c(Cl)c1 (stereo not drawn) [Example 448] | Ki [1]: 501 to 2500 nM |
| 501 to 2500 nM | Cc1ccc(C(CCNC2CCCC2)CNC(=O)Nc2cccc(Br)c2)cc1 (stereo not drawn) [Example 143] | – |
| – | CN(C)CCCNCCC(CNC(=O)Nc1cc(C(F)(F)F)cc(C(F)(F)F)c1)c1ccc(Cl)c(Cl)c1 (stereo not drawn) [Example 425] | Ki [1]: 501 to 2500 nM |
| 51 to 500 nM | N#Cc1cccc(-c2cccc(C(CCNC3CCCC3)CNC(=O)Nc3cc(Cl)cc(Cl)c3)c2)c1 (stereo not drawn) [Example 149] | – |
| 501 to 2500 nM | CS(=O)(=O)N(CCC(CNC(=O)Nc1cc(Cl)cc(Cl)c1)c1ccc(-c2cccc(C#N)c2)cc1)C1CCCC1 (stereo not drawn) [Example 87] | – |
| – | O=C(NCC(CCN1CCC(N2CCCCC2)CC1)c1ccc(Cl)c(Cl)c1)c1cc(Cl)cc(Cl)c1 (stereo not drawn) [Example 452] | Ki [1]: 501 to 2500 nM |
| 501 to 2500 nM | CN(C)CCCNCCC(CNC(=O)Nc1cc(Cl)cc(Cl)c1)c1cccc(-c2ccc(Cl)c(Cl)c2)c1 (stereo not drawn) [Example 167] | – |
| 501 to 2500 nM | O=C(NCC(CCN1CCC(NC(=O)c2ccno2)CC1)c1ccc(Cl)cc1)Nc1cc(Cl)cc(Cl)c1 (stereo not drawn) [Example 214] | – |
| 51 to 500 nM | Cc1ccc(C(CCN2CCC(NC(=O)C3CCC3)C2)CNC(=O)Nc2cc(Cl)cc(Cl)c2)cc1 (stereo not drawn) [Example 184] | – |
| 51 to 500 nM | CS(=O)(=O)NC1CCN(CCC(CNC(=O)Nc2cc(Cl)cc(Cl)c2)c2ccc(Cl)cc2)CC1 (stereo not drawn) [Example 179] | – |
| 51 to 500 nM | O=C(NCC(CCNC1CCCC1)c1ccc(Cl)cc1)Nc1cc(C(F)(F)F)cc(C(F)(F)F)c1 (stereo not drawn) [Example 108] | – |
| 51 to 500 nM | Cc1ccc(C(CCN2CCC(NC(=O)c3cccs3)CC2)CNC(=O)Nc2cc(Cl)cc(Cl)c2)cc1 (stereo not drawn) [Example 198] | – |
| 51 to 500 nM | CCNC(=O)N1CCC(NCCC(CNC(=O)Nc2cc(Cl)cc(Cl)c2)c2ccc(Cl)cc2)C1 (stereo not drawn) [Example 177] | – |
| – | CCOC(=O)N1CCC(NCCC(CNC(=O)Nc2ccc(F)c(Cl)c2)c2ccc(Cl)c(Cl)c2)CC1 (stereo not drawn) [Example 260] | Ki [2]: 51 to 500 nM |
| 0.4 to 50 nM | N#Cc1cccc(-c2ccc(C(CCNC3CC3)CNC(=O)Nc3ccc(Cl)cc3)cc2)c1 (stereo not drawn) [Example 65] | – |
